Results: patent publication US12102637B2, “Pharmaceutical formulations for treating endometriosis, uterine fibroids, polycystic ovary syndrome or adenomyosis” (AbbVie Inc., priority 2017, dated 2024)

Assay: Drug interaction studies: co-administered drug in the presence of elagolix
Settings: for direction of the change in AUC of concomitant drug: co-administered with ORILISSA (elagolix)
[1] = Ethinyl estradiol 35 mcg and triphasic norgestimate 0.18/0.215/0.25 mg once daily, elagolix 150 mg once daily, N 21
[2] = Digoxin 0.5 mg single dose, elagolix 200 mg twice daily × 10 days, N 11
[3] = Midazolam 2 mg single dose, elagolix 150 mg once daily × 13 days, N 11
[4] = Midazolam 2 mg single dose, elagolix 300 mg twice daily × 11 days, N 20
[5] = Norethindrone 0.35 mg once daily × 112 days, elagolix 150 mg once daily × 56 days, N 32
[6] = Rosuvastatin 20 mg once daily, elagolix 300 mg twice daily × 7 days, N 10

Method: Drug interaction studies were performed with elagolix and other drugs that are likely to be co-administered and with drugs commonly used as probes for pharmacokinetic interactions.

C#C[C@]1(O)CC[C@H]2[C@@H]3CCC4=CC(=NO)CC[C@@H]4[C@H]3CC[C@@]21CC (mixture of isomers) [Norelgestromin]
AUC Ratio (with elagolix vs medication alone) [1]: 0.85
Cmax Ratio (with elagolix vs medication alone) [1]: 0.87

C#CC1(O)CC[C@H]2[C@@H]3CCC4=CC(=O)CC[C@@H]4[C@H]3CC[C@@]21CC (mixture of isomers) [Norgestrel]
AUC Ratio (with elagolix vs medication alone) [1]: 0.92
Cmax Ratio (with elagolix vs medication alone) [1]: 0.89

C[C@H]1O[C@@H](O[C@H]2[C@@H](O)C[C@H](O[C@H]3[C@@H](O)C[C@H](O[C@H]4CC[C@@]5(C)[C@H](CC[C@@H]6[C@@H]5C[C@@H](O)[C@]5(C)[C@@H](C7=CC(=O)OC7)CC[C@]65O)C4)O[C@@H]3C)O[C@@H]2C)C[C@H](O)[C@@H]1O [Digoxin]
AUC Ratio (with elagolix vs medication alone) [2]: 1.26
Cmax Ratio (with elagolix vs medication alone) [2]: 1.71
direction of the change in AUC of concomitant drug: ↑ digoxin

C#C[C@]1(O)CC[C@H]2[C@@H]3CCc4cc(O)ccc4[C@H]3CC[C@@]21C [Ethinyl Estradiol]
AUC Ratio (with elagolix vs medication alone) [1]: 1.30
Cmax Ratio (with elagolix vs medication alone) [1]: 1.15

Cc1ncc2n1-c1ccc(Cl)cc1C(c1ccccc1F)=NC2 [Midazolam]
AUC Ratio (with elagolix vs medication alone) [3]: 0.65
Cmax Ratio (with elagolix vs medication alone) [3]: 0.81
AUC Ratio (with elagolix vs medication alone) [4]: 0.46
Cmax Ratio (with elagolix vs medication alone) [4]: 0.56
direction of the change in AUC of concomitant drug: ↓ midazolam

C#C[C@]1(O)CC[C@H]2[C@@H]3CCC4=CC(=O)CC[C@@H]4[C@H]3CC[C@@]21C [Norethindrone]
AUC Ratio (with elagolix vs medication alone) [5]: 0.88
Cmax Ratio (with elagolix vs medication alone) [5]: 0.95

CC(C)c1nc(N(C)S(C)(=O)=O)nc(-c2ccc(F)cc2)c1/C=C/[C@@H](O)C[C@@H](O)CC(=O)O [Rosuvastatin]
AUC Ratio (with elagolix vs medication alone) [6]: 0.60
Cmax Ratio (with elagolix vs medication alone) [6]: 0.99
direction of the change in AUC of concomitant drug: ↓ rosuvastatin
